In brackets after ≈: the same amount, converted by molar mass.
Tests used:
KB = assay: Cytotoxicity against human KB cells; assay type: functional, cell-based
L1210 = assay: Cytotoxicity against mouse L1210 cells; assay type: functional, cell-based

Q: What does the source list for C=C(C)[C@H](C)/C=C/[C@@H](C)[C@H]1CC[C@H]2C3=C[C@@H](O)[C@@]4(O)C[C@@H](O)CC[C@]4(C)[C@H]3CC[C@]12C [BIEMNASTEROL]?
A: IC50 (KB): 1.3 µg/mL (≈ 3.03 µM); IC50 (L1210): 3 µg/mL (≈ 7 µM)

Reference: ChEMBL document CHEMBL1147397, “Biemnasterol, a new cytotoxic sterol with the rare 22,25-diene side chain, isolated from the marine sponge Biemna sp” (J Nat Prod, 1993)
